Results: the supplement of paper PMC10307832

What was measured:
Assay in all cases: relative viability (nuclei count vs DMSO), 5 days (fraction); higher = more cells survive
YM155 + Phenformin = compound: COCC[n+]1c2c(n(Cc3cnccn3)c1C)C(=O)c1ccccc1C2=O [YM155] + N=C(N)NC(=N)NCCc1ccccc1 [Phenformin] (partner 250 µM)
Procedure, shortened: (§1)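 Lung cancer cell lines were seeded in 1536-well plates and dosed by pin tool the next day, with either a single drug or a fixed anchor-drug dose combined with five library-drug doses (not always all listed) spaced in √10 steps. Five days later, one step fixed the cells and stained their nuclei (final 0.05% Triton X-100, 1% formaldehyde, 1 ug/ml Hoechst), and nuclei were counted on 4× images. Relative viability is the nuclei count in treated wells divided by the count in vehicle wells, and each value is the median of duplicate plates.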

Quizartinib + Pictilisib = compound: CC(C)(C)c1cc(NC(=O)Nc2ccc(-c3cn4c(n3)sc3cc(OCCN5CCOCC5)ccc34)cc2)no1 [Quizartinib] + CS(=O)(=O)N1CCN(Cc2cc3nc(-c4cccc5[nH]ncc45)nc(N4CCOCC4)c3s2)CC1 [Pictilisib] (partner 1 µM)
Procedure, shortened: as §1

Quizartinib + Trametinib = compound: CC(C)(C)c1cc(NC(=O)Nc2ccc(-c3cn4c(n3)sc3cc(OCCN5CCOCC5)ccc34)cc2)no1 [Quizartinib] + CC(=O)Nc1cccc(-n2c(=O)n(C3CC3)c(=O)c3c(Nc4ccc(I)cc4F)n(C)c(=O)c(C)c32)c1 [Trametinib] (partner 0.02 µM)
Procedure, shortened: as §1

Quizartinib + AZD7762 = compound: CC(C)(C)c1cc(NC(=O)Nc2ccc(-c3cn4c(n3)sc3cc(OCCN5CCOCC5)ccc34)cc2)no1 [Quizartinib] + NC(=O)Nc1cc(-c2cccc(F)c2)sc1C(=O)N[C@H]1CCCNC1 [AZD7762] (partner 0.2 µM)
Procedure, shortened: as §1

| Cell Line | relative viability (YM155 + Phenformin; first compound 0.002 µM) | relative viability (YM155 + Phenformin; first compound 0.006325 µM) | relative viability (YM155 + Phenformin; first compound 0.02 µM) | relative viability (YM155 + Phenformin; first compound 0.06325 µM) | relative viability (Quizartinib + Pictilisib; first compound 0.001 µM) | relative viability (Quizartinib + Pictilisib; first compound 0.003162 µM) | relative viability (Quizartinib + Pictilisib; first compound 0.01 µM) | relative viability (Quizartinib + Pictilisib; first compound 0.03162 µM) | relative viability (Quizartinib + Pictilisib; first compound 0.1 µM) | relative viability (Quizartinib + Trametinib; first compound 0.001 µM) | relative viability (Quizartinib + Trametinib; first compound 0.003162 µM) | relative viability (Quizartinib + Trametinib; first compound 0.01 µM) | relative viability (Quizartinib + Trametinib; first compound 0.03162 µM) | relative viability (Quizartinib + Trametinib; first compound 0.1 µM) | relative viability (Quizartinib + AZD7762; first compound 0.001 µM) | relative viability (Quizartinib + AZD7762; first compound 0.003162 µM) | relative viability (Quizartinib + AZD7762; first compound 0.01 µM) | relative viability (Quizartinib + AZD7762; first compound 0.03162 µM) | relative viability (Quizartinib + AZD7762; first compound 0.1 µM) |
| --- | --- | --- | --- | --- | --- | --- | --- | --- | --- | --- | --- | --- | --- | --- | --- | --- | --- | --- | --- |
| NCI-H1666 | 0.567 | 0.599 | 0.578 | 0.579 | 0.458 | 0.325 | 0.415 | 0.399 | 0.264 | 0.856 | 0.746 | 0.888 | 0.79 | 0.772 | 0.851 | 0.803 | 0.888 | 0.8 | 0.99 |
| NCI-H1734 | 0.43 | 0.451 | 0.404 | 0.509 | 0.508 | 0.472 | 0.477 | 0.411 | 0.44 | 0.604 | 0.64 | 0.78 | 0.571 | 0.698 | 0.736 | 0.54 | 0.603 | 0.522 | 0.628 |
| NCI-H1755 | 0.626 | 0.575 | 0.602 | 0.657 | 0.39 | 0.439 | 0.416 | 0.401 | 0.436 | 0.744 | 0.851 | 0.856 | 0.784 | 0.755 | 0.486 | 0.392 | 0.489 | 0.526 | 0.434 |
| NCI-H1792 | – | – | 0.285 | 0.523 | 0.317 | 0.247 | 0.281 | 0.235 | 0.385 | 0.374 | 0.429 | 0.412 | 0.457 | 0.293 | 0.547 | 0.654 | 0.691 | 0.496 | 0.604 |
| NCI-H1793 | 0.348 | 0.371 | 0.365 | 0.353 | 0.304 | 0.398 | 0.249 | 0.362 | 0.334 | 0.395 | 0.435 | 0.444 | 0.448 | 0.452 | 0.483 | 0.414 | 0.451 | 0.409 | 0.259 |
| NCI-H1915 | 0.351 | 0.357 | 0.368 | 0.355 | 0.838 | 0.875 | 0.698 | 1 | 1.05 | 0.28 | 0.31 | 0.331 | 0.29 | 0.313 | 0.683 | 0.613 | 0.646 | 0.694 | 0.721 |
| NCI-H1944 | 0.208 | 0.17 | 0.202 | 0.205 | 0.347 | 0.327 | 0.319 | 0.322 | 0.31 | 0.453 | 0.405 | 0.419 | 0.448 | 0.313 | 0.493 | 0.414 | 0.48 | 0.57 | 0.527 |
| NCI-H1975 | 0.384 | 0.415 | 0.406 | 0.395 | 0.288 | 0.282 | 0.283 | 0.284 | 0.281 | 0.285 | 0.381 | 0.287 | 0.435 | 0.322 | 0.729 | 0.721 | 0.743 | 0.587 | 0.651 |
| NCI-H1993 | 0.463 | 0.547 | 0.488 | 0.512 | 0.917 | 0.776 | 0.812 | 0.807 | 0.808 | 0.445 | 0.46 | 0.576 | 0.619 | 0.527 | 0.759 | 0.699 | 0.87 | 0.672 | 0.914 |
| NCI-H2085 | 0.782 | 0.835 | 0.847 | 0.725 | 0.5 | 0.504 | 0.479 | 0.595 | 0.523 | 0.62 | 0.528 | 0.567 | 0.531 | 0.515 | 0.861 | 0.9 | 1.04 | 0.87 | 0.596 |
| NCI-H2087 | 0.476 | 0.448 | 0.498 | 0.495 | 0.393 | 0.867 | 0.916 | 0.665 | 0.81 | 0.233 | 0.217 | 0.223 | 0.202 | 0.19 | 1.13 | 1.15 | 1.26 | 1.38 | 1.3 |
| NCI-H2126 | 0.508 | 0.597 | 0.555 | 0.522 | 0.473 | 0.504 | 0.462 | 0.519 | 0.541 | 0.575 | 0.552 | 0.604 | 0.53 | 0.492 | 1.03 | 0.923 | 0.982 | 0.954 | 1.01 |
| NCI-H2170 | 0.416 | 0.4 | 0.413 | 0.408 | 0.388 | 0.327 | 0.308 | 0.42 | 0.321 | 0.868 | 0.907 | 0.92 | 1.01 | 0.947 | 0.906 | 0.848 | 0.914 | 0.973 | 1.03 |
| NCI-H2347 | 0.489 | 0.395 | 0.582 | 0.448 | 0.628 | 0.958 | 0.793 | 0.633 | 0.783 | 0.249 | 0.271 | 0.267 | 0.229 | 0.287 | 0.728 | 0.696 | 0.799 | 0.768 | 0.749 |
| NCI-H2405 | 0.383 | 0.39 | 0.423 | 0.404 | 0.614 | 0.442 | 0.327 | 0.44 | 0.503 | 0.623 | 0.621 | 0.599 | 0.57 | 0.691 | 0.919 | 0.741 | 0.789 | 0.745 | 0.797 |
| NCI-H3122 | 0.362 | 0.36 | 0.384 | 0.364 | 0.625 | 0.534 | 0.608 | 0.626 | 0.58 | 0.21 | 0.276 | 0.286 | 0.275 | 0.219 | 0.964 | 1.02 | 0.971 | 1.02 | 0.962 |
| PC-3 [JPC-3] | 0.454 | 0.521 | 0.475 | 0.473 | 0.656 | 0.794 | 0.834 | 0.733 | 0.73 | 0.672 | 0.754 | 0.705 | 0.663 | 0.643 | 0.545 | 0.811 | 0.781 | 0.75 | 0.766 |
